Earlier results on one compound are cited in patent publication US7521430B2, “N-glucoside compounds having an inhibitory activity against sodium-dependent glucose transporter” (Mitsubishi Tanabe Pharma Corporation, priority 2003, dated 2009).

The series has as its system diabetic animal models. The conditions noted are these: continuous subcutaneous administration.

In the case of `O=C(CCc1ccc(O)cc1)c1c(O)cc(O)cc1O[C@@H]1O[C@H](CO)[C@@H](O)[C@H](O)[C@H]1O` [phlorizin], the “hyperglycemia / blood glucose level” value is listed as “hyperglycemia is normalized”.
